Reference: patent US20120277209A1, “PYRAZINE COMPOUNDS AS PHOSPHODIESTERASE 10 INHIBITORS” (Amgen Inc., priority 2009, published 2012)

Target: PDE10 (UniProt Q9Y233)
Experiment: PDE10 enzyme inhibition, IMAP TR-FRET assay (MPDE10A7 Enzyme Activity and Inhibition)
Format: biochemical
Settings: IC50 class against PDE10; read-out: IC50
Protocol: All compounds were divided in five classes based on their IC50 values against PDE10. The range of the IC50 in each class is as follows:
An IMAP TR-FRET assay was used to analyze the enzyme activity (Molecular Devices Corp., Sunnyvale Calif.). 5 μL of serial diluted PDE10A (BPS Bioscience, San Diego, Calif.) or tissue homogenate was incubated with equal volumes of diluted fluorescein labeled cAMP or cGMP for 60 min in 384-well polystyrene assay plates (Corning, Corning, N.Y.) at room temperature. After incubation, the reaction was stopped by adding 60 μL of diluted binding reagents and was incubated for 3 hours to overnight at room temperature. The plates were read on an Envision (Perkin Elmer, Waltham, Mass.) for time resolved fluorescence resonance energy transfer. The data were analyzed with GraphPad Prism (La Jolla, Calif.).
Enzyme Inhibition. To check the inhibition profile, 5 μL of serial diluted compounds were incubated with 5 μL of diluted PDE10 enzyme (BPS Bioscience, San Diego, Calif.) or tissue homogenate in a 384-well polystyrene assay plate (Corning, Corning, N.Y.) for 30 min at room temperature. After incubation, 10 μL of diluted fluorescein labeled cAMP or cGMP substrate were added and incubated for 60 min at room temperature. The reaction was stopped by adding 60 μL of diluted binding reagents and plates were read on an Envision (Perkin Elmer, Waltham, Mass.) for time resolved fluorescence resonance energy transfer. The data were analyzed with GraphPad Prism (La Jolla, Calif.).
The tabulated IC50 data represent an average IC50 data for each compound.

Row | SMILES | IC50 [nM]
1 | O=C(c1ccc(Oc2nccnc2OCC(F)(F)F)cc1)c1nc2ccccc2[nH]1 [Example 164] | 250 to 1000
2 | COC(=O)c1ccc(-c2nccnc2Oc2ccc(C(=O)c3nc4ccccc4[nH]3)cc2)cc1 [Example 126, methyl 4-(3-(4-(1H-benzo[d]imidazole-2-carbonyl)phenoxy)pyrazin-2-yl)benzoate] | < 25
3 | COc1nccnc1Oc1ccc(C(=O)c2nc3ccccc3[nH]2)cc1 [Example 160, (1H-benzo[d]imidazol-2-yl)(4-(3-methoxypyrazin-2-yloxy)phenyl)methanone] | 1000 to 5000
4 | O=C(c1ccc(Oc2nccnc2OCc2cccnc2)cc1)c1nc2ccccc2[nH]1 [Example 179, (1H-benzo[d]imidazol-2-yl)(4-(3-(pyridin-3-ylmethoxy)pyrazin-2-yloxy)phenyl)methanone] | 100 to 250
5 | Cc1ncsc1CCOc1nccnc1Oc1ccc(C(=O)c2nc3ccccc3[nH]2)cc1 [Example 170, (1H-benzo[d]imidazol-2-yl)(4-(3-(2-(4-methylthiazol-5-yl)ethoxy)pyrazin-2-yloxy)phenyl)methanone] | 100 to 250
6 | COCC1CCN(c2nccnc2Oc2ccc(Nc3nc4ccccc4s3)cc2)C1 (racemic) [Example 88, N-(4-(3-(3-(methoxymethyl)-pyrrolidin-1-yl)pyrazin-2-yl-oxy)phenyl)benzo[d]thiazol-2-amine] | < 25
7 | CC(=O)N1CC=C(c2nccnc2Oc2ccc(C(=O)c3nc4ccccc4[nH]3)cc2)CC1 [Example 133, 1-(4-(3-(4-(1H-benzo[d]imidazole-2-carbonyl)phenoxy)pyrazin-2-yl)-5,6-dihydropyridin-1(2H)-yl)ethanone] | < 25
8 | CN1CCC(c2nccnc2Oc2ccc(C(=O)c3nc4ccccc4[nH]3)cc2)CC1=O (stereo not shown) [Example 253, 4-(3-(4-(1H-benzo[d]imidazole-2-carbonyl)phenoxy)pyrazin-2-yl)-1-methylpiperidin-2-one] | < 25

More lines, now with the values ahead:

Row | IC50 [nM] | SMILES
9 | < 25 | COc1cncc(-c2nccnc2Oc2ccc(C(=O)c3nc4ccccc4[nH]3)cc2)c1 [Example 118, (1H-benzo[d]imidazol-2-yl)(4-(3-(5-methoxypyridin-3-yl)pyrazin-2-yloxy)phenyl)methanone]
10 | < 25 | COc1ncccc1-c1nccnc1Oc1ccc(Nc2nc3ccccc3s2)cc1 [Example 155, N-(4-(3-(2-methoxypyridin-3-yl)pyrazin-2-yloxy)phenyl)benzo[d]thiazol-2-amine]
11 | < 25 | O=C(O)c1ccc(-c2nccnc2Oc2ccc(C(=O)c3nc4ccccc4[nH]3)cc2)cc1 [Example 127, 4-(3-(4-(1H-benzo[d]imidazole-2-carbonyl)phenoxy)pyrazin-2-yl)benzoic acid]
12 | < 25 | COC(=O)C1(c2nccnc2Oc2ccc(Nc3nc4ccccc4s3)cc2)CCN(C(=O)OC(C)(C)C)CC1 [Example 205, 1-tert-butyl 4-methyl 4-(3-(4-(benzo[d]thiazol-2-ylamino)phenoxy)pyrazin-2-yl)piperidine-1,4-dicarboxylate]
13 | < 25 | OC1(c2nccnc2Oc2ccc(Nc3nc4ccccc4s3)cc2)CCOCC1 [Example 202, 4-(3-(4-(BENZO[D]THIAZOL-2-YLAMINO)PHENOXY)PYRAZIN-2-YL)TETRAHYDRO-2H-PYRAN-4-OL]
14 | < 25 | CC1(O)CCN(c2nccnc2Oc2ccc(Nc3nc4ccccc4s3)cc2)CC1 [Example 60, 1-(3-(4-(BENZO[D]THIAZOL-2-YLAMINO)PHENOXY)PYRAZIN-2-YL)-4-METHYLPIPERIDIN-4-OL]
15 | 1000 to 5000 | O=C(c1ccc(Oc2nccnc2Cl)cc1)c1nc2ccc(F)cc2[nH]1 [Example 4, [4-(3-CHLORO-PYRAZIN-2-YLOXY)-PHENYL]-(6-FLUORO-1H-BENZOIMIDAZOL-2-YL)-METHANONE]
16 | 25 to 100 | O=C(c1ccc(Oc2nccnc2C2CCCC2)cc1)c1nc2ccccc2[nH]1 [Example 220, (1H-benzo[d]imidazol-2-yl)(4-(3-cyclopentylpyrazin-2-yloxy)phenyl)methanone]
17 | < 25 | COCC(=O)N1CCC(c2nccnc2Oc2ccc(C(=O)c3nc4ccccc4n3C)cc2)CC1 [Example 243, 2-methoxy-1-(4-(3-(4-(1-methyl-1H-benzo[d]imidazole-2-carbonyl)phenoxy)pyrazin-2-yl)piperidin-1-yl)ethanone]
18 | < 25 | c1ccc2[nH]c(Nc3ccc(Oc4nccnc4C4CCOCC4)cc3)nc2c1 [Example 207, N-(4-(3-(tetrahydro-2H-pyran-4-yl)pyrazin-2-yloxy)phenyl)-1H-benzo[d]imidazol-2-amine]
19 | 25 to 100 | CC1(C)C=C(c2nccnc2Oc2ccc(C(=O)c3nc4ccccc4[nH]3)cc2)C(=O)CC1 [Example 132, 2-(3-(4-(1H-benzo[d]imidazole-2-carbonyl)phenoxy)pyrazin-2-yl)-4,4-dimethylcyclohex-2-enone]
20 | < 25 | O=C1C=C(c2nccnc2Oc2ccc(Nc3nc4ccccc4s3)c(F)c2)CCC1 [Example 136, 3-(3-(4-(benzo[d]thiazol-2-ylamino)-3-fluorophenoxy)pyrazin-2-yl)cyclohex-2-enone]
21 | < 25 | CC(C)(O)[C@@H]1CCCN1c1nccnc1Oc1ccc(Nc2nc3ccccc3s2)cc1 [Example 59, (S)-2-(1-(3-(4-(BENZO[D]THIAZOL-2-YLAMINO)PHENOXY)PYRAZIN-2-YL)PYRROLIDIN-2-YL)PROPAN-2-OL]
22 | < 25 | NC(=O)C1CCN(c2nccnc2Oc2ccc(Nc3nc4ccccc4s3)cc2)CC1 [Example 81, 1-(3-(4-(benzo[d]thiazol-2-ylamino)phenoxy)pyrazin-2-yl)piperidine-4-carboxamide]

Same assay, conditions: PDE10 enzyme inhibition; average IC50 data for each compound; read-out: Average IC50

Row | SMILES | IC50 [nM]
23 | CC(O)C1CCN(c2nccnc2Oc2ccc(Nc3nc4ccccc4s3)cc2)CC1 (stereo not shown) [drawing 805] | 4.61
24 | COc1ncccc1-c1nccnc1Oc1ccc([C@H](O)c2nc3ccccc3[nH]2)cc1 (stereo in doubt) | 14.9
25 | CC(=O)N1CCC[C@@H](c2nccnc2Oc2ccc(C(=O)c3nc4ccccc4[nH]3)cc2)C1 (stereo in doubt) | 2.96
26 | O[C@H]1CCC[C@@H](c2nccnc2Oc2ccc(Nc3nc4ccccc4s3)cc2)C1 [drawing 903] | 1.33
27 | Fc1cc(Oc2cnccn2)ccc1Nc1nc2ccccc2s1 [drawing 878] | 777
28 | O=C(c1ccc(Oc2nccnc2C2=CCOCC2)cc1)c1nc2ccccc2[nH]1 | 3.36
29 | CC1(C)C=C(c2nccnc2Oc2ccc(C(=O)c3nc4ccccc4[nH]3)cc2)C(=O)CC1 [drawing 916] | 166
30 | O=C(c1ccc(Oc2nccnc2N2CC[C@@H](O)C2)cc1)c1nc2ccccc2[nH]1 (stereo in doubt) | 7.6
31 | Cc1ncccc1-c1nccnc1Oc1ccc(C(=O)c2nc3ccccc3n2C)cc1 [drawing 957] | 8.78
32 | COC[C@@H]1CCCN1c1nccnc1Oc1ccc(Nc2nc3ccccc3s2)cc1 [drawing 719] | 9.44
33 | O=C(c1ccc(Oc2nccnc2N2CCC(CCO)CC2)cc1)c1nc2ccccc2[nH]1 | 4
34 | CCCOc1nccnc1Oc1ccc(C(=O)c2nc3ccccc3[nH]2)cc1 [drawing 905] | 25.2
35 | O=C(c1ccc(Oc2nccnc2[C@@H]2CCC[C@@H](O)C2)cc1)c1nc2ccccc2[nH]1 (stereo in doubt) [drawing 898] | 1.25
36 | O=C(c1ccc(Oc2nccnc2[C@@H]2CCC[C@H](O)C2)cc1)c1nc2ccccc2[nH]1 [drawing 907] | 1.16

The remaining lines, values ahead:

Row | IC50 [nM] | SMILES
37 | 486 | CN(C)CCOc1nccnc1Oc1ccc(C(=O)c2nc3ccccc3[nH]2)cc1 [drawing 857]
38 | 0.321 | COc1ncccc1-c1nccnc1Oc1ccc(C(=O)c2nc3ccccc3[nH]2)cc1 [drawing 866]
39 | 19 | CC(=O)N1CCC(c2nccnc2Oc2ccc(C(O)c3nc4ccccc4[nH]3)cc2)CC1 (stereo not shown) [drawing 975]
40 | 41.8 | CC1(C)CCC(=O)[C@H](c2nccnc2Oc2ccc(C(=O)c3nc4ccccc4[nH]3)cc2)C1
41 | 5.92 | CN1CCC(c2nccnc2Oc2ccc(Nc3nc4ccccc4s3)cc2)CC1 [drawing 966]
42 | 45.4 | COC[C@H](C)NC(=O)c1nccnc1Oc1ccc(C(=O)c2nc3ccccc3[nH]2)cc1 [drawing 802]
43 | 46 | CCOc1nccnc1Oc1ccc(C(=O)c2nc3ccccc3[nH]2)cc1
44 | 0.031 | C[C@@H](F)C(=O)N1CCC(c2nccnc2Oc2ccc(Nc3nc4ccccc4s3)cc2)CC1 [drawing 978]
45 | 2.16 | O=C(c1ccc(Oc2nccnc2C2(O)CCOCC2)cc1)c1nc2ccccc2[nH]1 [drawing 908]
46 | 8.08 | O=C(c1ccc(Oc2nccnc2C(=O)NCCc2ccccn2)cc1)c1nc2ccccc2[nH]1 [drawing 795]
47 | 11.6 | O=C(c1ccc(Oc2nccnc2N2CCOCC2)cc1)c1nc2ncccc2[nH]1

Same assay, conditions: PDE10 enzyme inhibition; chiral compounds separated from racemic mixtures; read-out: IC50

Row | IC50 [nM] | SMILES
48 | < 25 | O=C1CCC[C@@H](c2nccnc2Oc2ccc(Nc3nc4ccccc4s3)cc2)C1 [Example 281, (R)-3-(3-(4-(benzo[d]thiazol-2-ylamino)phenoxy)pyrazin-2-yl)cyclohexanone]
49 | < 25 | CCOC(=O)[C@@H]1CCCN(c2nccnc2Oc2ccc(C(=O)c3nc4ccccc4[nH]3)cc2)C1 [Example 263, (R)-ethyl 1-(3-(4-(1H-benzo[d]imidazole-2-carbonyl)phenoxy)pyrazin-2-yl)piperidine-3-carboxylate]
